Values quoted from earlier work, collected in patent publication US20260308141A1, “SYNTHESIS OF ORELLANINE” (ONCORENA AB, priority 2023, published 2026).

Assays:
human renal cancer cells [1] = tested on: human renal cancer cells
human renal cancer cells [2] = tested on: human renal cancer cells; remark: listed apart in the source

## [O-][n+]1ccc(O)c(O)c1-c1c(O)c(O)cc[n+]1[O-] [Orellanine]
Human renal cancer cells [1]; after transient exposure
  active uptake and retention by the cells (inferred from progressing cell death): actively taken up and retained by the cells
Human renal cancer cells [1]; human renal cancer cells, primary or metastatic
  uptake in human renal cancer cells: taken up in human renal cancer cells
Human renal cancer cells [2]; after transient exposure to Orellanine
  progress of cell death: progressed for many days
Human renal cancer cells [2]; cells derived from a primary tumor or from metastatic tumor tissue
  killing of human renal cancer cells: killed them with great efficiency
